# Assay results as given in publication PMC10914731, “Homo-BacPROTAC-induced degradation of ClpC1 as a strategy against drug-resistant mycobacteria” (Nature Communications, 2024).
# Values joined by “and” are separate entries in the source; they are usually repeats but may differ in a detail not shown here. Equal values may be shown once. Read-outs that look alike come from different tables or passages of the source. *1 amine or outer side, *2 acyl side, *3 side chain or, on linkers, in order; H or OH if unused. Where a SMILES comes first, the peptide text is derived from it. [ ]: non-standard residue; d: D form. X1 = C#CCn1cc(C[C@H](N[*:1])C(=O)[*:2])c2ccccc21; NMeLeu(5-OH,4R) = CN[C@@H](C[C@@H](C)CO)C(=O)O; Phe(βR-OMe) = CO[C@H](c1ccccc1)[C@H](N)C(=O)O; Trp(1-Me) = Cn1cc(C[C@H](N)C(=O)O)c2ccccc21; NMeL = CN[C@@H](CC(C)C)C(=O)O; Pra = C#CC[C@H](N)C(=O)O
# Legend:
# [1] = molecular target: ClpC1 NTD protein (M. tuberculosis) (Mycobacterium tuberculosis, UniProt P9WPC9); experiment: biochemical; type: binding; details: SPR
# [2] = Microsomal stability, human; type: in vitro ADME; details: for Microsomal Stability Human: clearance in microsomes
# Outline: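 Metabolic depletion in liver microsomes (0.5 mg/ml, 1 mM NADPH, 37 °C) starting from 1 µmol/l test compound, sampled at multiple times with acetonitrile quench. LC-MS/MS quantitation; half-life converted to %Qh.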
# [3] = tested on: M. tuberculosis H37Rv (ATCC 27294); experiment: microbe, parasite or virus in culture; type: cell-based
# [4] = tested on: Msm 607; experiment: microbe, parasite or virus in culture; type: cell-based
# [5] = tested on: Enterococcus faecium; experiment: MIC ESKAPES panel, Enterococcus faecium; type: cell-based
# Procedure: (§1) Minimum inhibitory concentration (MIC) against ESKAPES panel of Gram positive and Gram negative pathogens (Enterococcus faecium, Staphylococcus aureus, Klebsiella pneumoniae, Acinetobacter baumannii, Pseudomonas aeruginosa, Enterobacter cloacae and Salmonella typhimurium [ESKAPES panel]) were determined at the FNDR by the standard broth dilution method [CLSI, M100]. […] Mueller Hinton broth (MHB) medium was used to grow ESKAPES panel strains. The individual cultures were added as 200 μL (inoculum of 3–7 × 10^5 cfu/ml) to the respective assay plates in each well to all columns, except the media control (200 μL of medium). […] The assay plates were incubated at 37 °C, and the results were noted on the 2nd day as turbidometric readout. The clear wells indicated inhibition of growth, while the turbid wells indicated uninhibited growth.
# [6] = tested on: Salmonella typhimurium; experiment: MIC ESKAPES panel, Salmonella typhimurium; type: cell-based
# Procedure: as §1
# [7] = tested on: Mycobacterium abscessus; experiment: microbe, parasite or virus in culture; type: cell-based
# [8] = individual measurements (source data), read-out: KD ClpC1-NTD
# [9] = read-out: ClpC1-NTD KD Mean ± SD
# [10] = M. tuberculosis H37Rv 27294, single well replicates, read-out: MIC
# [11] = Mycobacterium tuberculosis, M. tuberculosis H37Rv strain, read-out: MIC Mtb H37Rv Mean ± SD
# [12] = Mycobacterium tuberculosis, Mtb H37Rv (Supplementary Table 2), read-out: MIC Mtb
# [13] = Mycobacterium tuberculosis, Mtb H37Rv, mean ± SD, n = 3 well replicates, read-out: MIC
# [14] = Mycobacterium tuberculosis, Set 1, read-out: MIC (Mtb H37Rv) Set 1
# [15] = Mycobacterium tuberculosis, Set 2, read-out: MIC (Mtb H37Rv) Set 2
# [16] = Mycobacterium tuberculosis, Set 3, done at a different day than Set 1 and Set 2, read-out: MIC (Mtb H37Rv) Set 3
# [17] = Mycobacterium tuberculosis, individual example (Supplementary Table 11), read-out: MIC Mtb H37Rv
# [18] = Mycobacterium tuberculosis, individual measurements (source data), read-out: Mtb MIC
# [19] = Mycobacterium tuberculosis, mean of 3 experiments +/- SD, unit taken from the sets above in the same table, read-out: MIC data (Mtb H37Rv) (+/- SD)
# [20] = Mycobacterium tuberculosis, single determinations, read-out: Mtb MIC
# [21] = Mycolicibacterium smegmatis, 607, read-out: MIC Msm 607
# [22] = Mycolicibacterium smegmatis, 607, read-out: MIC Msm #607, individual example (Supplementary Table 11)
# [23] = Mycolicibacterium smegmatis, 607, read-out: Msm 607 MIC, single determinations
# [24] = Mycolicibacterium smegmatis, ATCC607, Set-1, read-out: MIC (Msm ATCC607) Set-1
# [25] = Mycolicibacterium smegmatis, ATCC607, Set-2, read-out: MIC (Msm ATCC607) Set-2
# [26] = Mycolicibacterium smegmatis, ATCC607, Set-3, done at a different day than Set 1 and Set 2, read-out: MIC (Msm ATCC607) Set-3
# [27] = Mycolicibacterium smegmatis, ATCC607, mean of 3 experiments ± SD, read-out: MIC including standard deviations (Msm ATCC607)
# [28] = Enterococcus faecium, Gram positive, n = 3 well replicates
# [29] = Enterococcus faecium, Gram-Positive Bacteria, replicates 1-3
# [30] = Gram-Positive Bacteria, replicates 1-3
# [31] = Gram-Negative Bacteria, replicates 1-3
# [32] = Salmonella enterica, TYPHIMURIUM, Gram negative, n = 3 well replicates
# [33] = Salmonella enterica, TYPHIMURIUM, Gram-Negative Bacteria, replicates 1-3
# [34] = Experiment 2, three replicate columns
# [35] = Experiment 2, three replicate columns, read-out: MIC (µM) Mycobacterium abscessus
# [36] = Mycobacteroides abscessus, Experiment 1, read-out: MIC Mycobacterium abscessus
# [37] = Mycobacteroides abscessus, Experiment 2, three replicate columns, read-out: MIC (µM) Mycobacterium abscessus
# [38] = Mycobacteroides abscessus, Experiment 2, three replicate columns, read-out: MIC (µg/ml) Mycobacterium abscessus
# [39] = Mycobacteroides abscessus, mean ± SD, read-out: MIC Mycobacterium abscessus
# Sequence of ClpC1 NTD protein (M. tuberculosis) (P9WPC9 1-156, looked up, natural form): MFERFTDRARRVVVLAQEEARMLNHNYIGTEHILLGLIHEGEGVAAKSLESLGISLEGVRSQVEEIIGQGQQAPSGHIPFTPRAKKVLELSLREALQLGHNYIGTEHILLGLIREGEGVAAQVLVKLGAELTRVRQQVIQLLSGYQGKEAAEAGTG
Compound,"Kd [1, 8]","Kd [1, 9]",Microsomal Stability Human QH [2],Microsomal Stability Human [2],"MIC [3, 10]","MIC [3, 11]","MIC [3, 12]","MIC [3, 13]","MIC [3, 14]","MIC [3, 15]","MIC [3, 16]","MIC [3, 17]","MIC [3, 18]","MIC [3, 19]","MIC [3, 20]","MIC [4, 21]","MIC [4, 22]","MIC [4, 23]","MIC [4, 24]","MIC [4, 25]",other results
"C#CCn1cc(C[C@@H]2NC(=O)[C@H](C(C)C)NC(=O)[C@H](CC(C)C)N(C)C(=O)[C@H](C(C)C)NC(=O)[C@H]([C@H](OC)c3ccccc3)NC(=O)[C@H](C)NC(=O)[C@H](C[C@@H](C)CO)N(C)C2=O)c2ccccc21 [Compound 5] (cyclo(A[Phe(βR-OMe)]V[NMeL]V[X1][NMeLeu(5-OH,4R)]))",3.63 nM and 3.45 nM,3.5 ± 0.1 nM,>88.400%,> 88 %Qh,3.125 µM (2×) and 1.56 µM,1.6 µM,1.6 µM,2.6 ± 0.9 µM,1.56 µM and 1.47 µg/mL,1.56 µM and 1.47 µg/mL,1.56 µM and 1.47 µg/mL,1.6 µM and 1.5 µg/mL,1.56 µM,1.56 µM and 1.47 µg/mL,1.56 µM,25 µM,25 µM and 23.5 µg/mL,25 µM,12.5 µM and 11.8 µg/mL,25 µM and 23.5 µg/mL,"koff ClpC1-NTD ([1]; single independent measurements): 0.04 s⁻¹; koff ([1]; single independent measurements, read-out: koff ClpC1-NTD): 0.02 s⁻¹; MIC [4, 26]: 12.5 µM and 11.8 µg/mL; MIC [4, 27]: 16.6 µM and 15.7 µg/mL; MIC [5, 28]: > 50 µM; MIC [5, 29]: > 47 µg/mL; MIC [5, 30]: >50 µM; MIC [6, 31]: >50 µM; MIC [6, 32]: > 50 µM; MIC [6, 33]: > 47 µg/mL; MIC (µg/ml) Mycobacterium abscessus [7, 34]: 5.88 µg/mL; MIC [7, 35]: 6.25 µM; MIC [7, 36]: 3.1 µM and 2.9 µg/mL; MIC [7, 37]: 6.25 µM; MIC [7, 38]: 5.88 µg/mL; MIC [7, 39]: 5.5 ± 1.6 µM"
"C#CC[C@@H]1NC(=O)[C@H](CC(C)C)N(C)C(=O)[C@H](C(C)C)NC(=O)[C@H]([C@H](OC)c2ccccc2)NC(=O)[C@H](C)NC(=O)[C@H](C[C@@H](C)CO)N(C)C(=O)[C@H](Cc2cn(C)c3ccccc23)NC1=O [Compound 10] (cyclo(A[Phe(βR-OMe)]V[NMeL][Pra][Trp(1-Me)][NMeLeu(5-OH,4R)]))",4.65 nM and 4.5 nM and 3.27 nM and 3.4 nM,4 ± 0.7 nM,>88.400%,> 88 %Qh,3.125 µM,3.1 µM,3.1 µM,3.1 µM,3.13 µM and 2.85 µg/mL,3.13 µM and 2.85 µg/mL,3.13 µM and 2.85 µg/mL,3.1 µM and 2.9 µg/mL,3.12 µM,3.13 µM and 2.85 µg/mL,3.12 µM,3.1 µM,6.3 µM and 5.7 µg/mL,3.12 µM,3.12 µM and 2.85 µg/mL,6.25 µM and 5.71 µg/mL,"MIC ([3]; Mycobacterium tuberculosis, M. tuberculosis H37Rv 27294, single well replicates, read-out: MIC): 3.12 µM; MIC ([3]; individual measurements (source data), read-out: Mtb MIC): 3.125 µM; MIC [4, 26]: 3.12 µM and 2.85 µg/mL; MIC [4, 27]: 4.16 µM and 3.8 µg/mL; MIC [5, 28]: > 50 µM; MIC [5, 29]: > 45.6 µg/mL; MIC [5, 30]: >50 µM; MIC [6, 31]: >50 µM; MIC [6, 32]: > 50 µM; MIC [6, 33]: > 45.6 µg/mL; MIC (µg/ml) Mycobacterium abscessus [7, 34]: 11.41 µg/mL; MIC [7, 35]: 12.5 µM; MIC [7, 36]: 12.5 µM and 11.4 µg/mL; MIC [7, 37]: 12.5 µM; MIC [7, 38]: 11.4 µg/mL; MIC [7, 39]: 12.5 µM"
